Target: RORγt (Homo sapiens (Human), UniProt P51449)
Experiment: Gal4 ligand binding assay (RORγt Gal fusion luciferase reporter assay in HEK293T cells)
Assay type: cell-based
Details: RORγt inverse agonists in RORγt Gal fusion assay
Experimental: The N-terminal DNA binding domains (DBD) of the native RORγ and RORγt receptors have been substituted with that of the yeast GAL4-DBD and stably transfected in HEK293T cells that also stably express luciferase under the regulation by upstream activation sequence of yeast Gal4. These cells constitutively express high level RORγ activity due to binding of endogenous co-factors. Both agonist and inverse agonist activity can be detected. The assay was performed according to kit manufacturer's instructions as follows. 10 mM compound stocks were diluted serially 1:3 with DMSO and further diluted with provided media to generate 10 titration points from 60 μM to 3 nM. These treatment conditions were added to the plates as 2× media in 100 μL volume. Each plate includes a positive control with 10 titration points as well as 6 negative control wells with vehicle only, with final DMSO concentration of 0.2%. RORγ reporter cells were rapidly thawed and added to the plates in 100 μL volume. The plates were incubated for 24 h in a 37° C. humidified 5% CO2 incubator. Media was removed before the addition of room temperature luciferous detection substrate. After 5 minute incubation, relative light units (RLUs) were quantified using a plate reading luminometer. Data was normalized to […] with only 0.2%0DMSO. Before establishing internal controls, ursolic acid was used as control.

Chain of RORγt (P51449 269-508): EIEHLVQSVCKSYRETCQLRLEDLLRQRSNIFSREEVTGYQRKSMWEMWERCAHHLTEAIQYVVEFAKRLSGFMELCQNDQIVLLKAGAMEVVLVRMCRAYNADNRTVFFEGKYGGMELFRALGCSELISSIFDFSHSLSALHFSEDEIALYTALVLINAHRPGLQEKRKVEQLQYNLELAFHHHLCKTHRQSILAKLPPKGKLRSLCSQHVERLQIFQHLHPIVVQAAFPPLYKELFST

IC50 | SMILES
0.05 to 0.25 µM | CCc1cc(CN2CC3(C2)CN(C(=O)OC(C)(C)C)C3)ccc1-c1ccc(C(O)(C(F)(F)F)C(F)(F)F)cc1 [Example 1, tert-butyl 6-((2-ethyl-4′-(1,1,1,3,3,3-hexafluoro-2-hydroxypropan-2-yl)-[1,1′-biphenyl]-4-yl)methyl)-2,6-diazaspiro[3.3]heptane-2-carboxylate]
< 0.05 µM | CCc1cc(CN2CC3(CCS(=O)(=O)CC3)C2)ccc1-c1ccc(C(O)(C(F)(F)F)C(F)(F)F)cc1 [Example 3, 2-((2-ethyl-4′-(1,1,1,3,3,3-hexafluoro-2-hydroxypropan-2-yl)-[1,1′-biphenyl]-4-yl)methyl)-7-thia-2-azaspiro[3.5]nonane 7,7-dioxide]
< 0.05 µM | CCc1cc(CN2CCC3(CC2)CN(S(C)(=O)=O)C3)ccc1-c1ccc(C(O)(C(F)(F)F)C(F)(F)F)cc1 [Example 4, 2-(2′-ethyl-4′-((2-(methylsulfonyl)-2,7-diazaspiro[3.5]nonan-7-yl)methyl)-[1,1′-biphenyl]-4-yl)-1,1,1,3,3,3-hexafluoropropan-2-ol]
< 0.05 µM | CCc1cc(CN2CCCC3(C2)CN(S(C)(=O)=O)C3)ccc1-c1ccc(C(O)(C(F)(F)F)C(F)(F)F)cc1 [Example 5, 2-(2′-ethyl-4′-((2-(methylsulfonyl)-2,6-diazaspiro[3.5]nonan-6-yl)methyl)-[1,1′-biphenyl]-4-yl)-1,1,1,3,3,3-hexafluoropropan-2-ol]
0.05 to 0.25 µM | CCc1cc(CN2CC3(CCN(S(C)(=O)=O)C3)C2)ccc1-c1ccc(C(O)(C(F)(F)F)C(F)(F)F)cc1 [Example 6, 2-(2′-ethyl-4′-((6-(methylsulfonyl)-2,6-diazaspiro[3.4]octan-2-yl)methyl)-[1,1′-biphenyl]-4-yl)-1,1,1,3,3,3-hexafluoropropan-2-ol]
< 0.05 µM | CC(C)c1c(F)c(CN2CC3(C2)CN(S(C)(=O)=O)C3)cc(F)c1-c1ccc(C(O)(C(F)(F)F)C(F)(F)F)cc1 [Example 7, 2-(3′,6′-difluoro-2′-isopropyl-4′-((6-(methylsulfonyl)-2,6-diazaspiro[3.3]heptan-2-yl)methyl)-[1,1′-biphenyl]-4-yl)-1,1,1,3,3,3-hexafluoropropan-2-ol]
< 0.05 µM | CC(C)c1c(-c2ccc(C(O)(C(F)(F)F)C(F)(F)F)cc2)cc(F)c(CN2CC3(C2)CN(S(C)(=O)=O)C3)c1F [Example 8, 2-(3′,5′-difluoro-2′-isopropyl-4′-((6-(methylsulfonyl)-2,6-diazaspiro[3.3]heptan-2-yl)methyl)-[1,1′-biphenyl]-4-yl)-1,1,1,3,3,3-hexafluoropropan-2-ol]
0.05 to 0.25 µM | CCc1cc(CN2CCC(CS(C)(=O)=O)CC2)ccc1-c1ccc(C(O)(C(F)(F)F)C(F)(F)F)cc1 [Example 9, 2-(2′-ethyl-4′-((4-((methylsulfonyl)methyl)piperidin-1-yl)methyl)-[1,1′-biphenyl]-4-yl)-1,1,1,3,3,3-hexafluoropropan-2-ol]
< 0.05 µM | CCc1cc(CN2CCC(S(C)(=O)=O)CC2)ccc1-c1ccc(C(O)(C(F)(F)F)C(F)(F)F)cc1 [Example 10, 2-(2′-ethyl-4′-((4-(methylsulfonyl)piperidin-1-yl)methyl)-[1,1′-biphenyl]-4-yl)-1,1,1,3,3,3-hexafluoropropan-2-ol]
< 0.05 µM | Cc1cc(C(O)(C(F)(F)F)C(F)(F)F)ccc1-c1ccc(CN2CCC3(C2)CS(=O)(=O)C3)cc1C(C)C [Example 11, 6-((4′-(1,1,1,3,3,3-hexafluoro-2-hydroxypropan-2-yl)-2-isopropyl-2′-methyl-[1,1′-biphenyl]-4-yl)methyl)-2-thia-6-azaspiro[3.4]octane 2,2-dioxide]
0.05 to 0.25 µM | Cc1cc(C(O)(C(F)(F)F)C(F)(F)F)ccc1-c1ccc(CN2CC3(C2)CS(=O)(=O)C3)cc1C(C)C [Example 12, 6-((4′-(1,1,1,3,3,3-hexafluoro-2-hydroxypropan-2-yl)-2-isopropyl-2′-methyl-[1,1′-biphenyl]-4-yl)methyl)-2-thia-6-azaspiro[3.3]heptane 2,2-dioxide]
< 0.05 µM | CCC(C)c1cc(CN2CC3(C2)CN(S(C)(=O)=O)C3)ccc1-c1ccc(C(O)(C(F)(F)F)C(F)(F)F)cc1 (centres unmarked) [Example 13, 2-(2′-(sec-butyl)-4′-((6-(methylsulfonyl)-2,6-diazaspiro[3.3]heptan-2-yl)methyl)-[1,1′-biphenyl]-4-yl)-1,1,1,3,3,3-hexafluoropropan-2-ol]
< 0.05 µM | CC(C)c1cc(CN2CC3(C2)CN(S(C)(=O)=O)C3)c(F)c(F)c1-c1ccc(C(O)(C(F)(F)F)C(F)(F)F)cc1 [Example 14, 2-(2′,3′-difluoro-6′-isopropyl-4′-((6-(methylsulfonyl)-2,6-diazaspiro[3.3]heptan-2-yl)methyl)-[1,1′-biphenyl]-4-yl)-1,1,1,3,3,3-hexafluoropropan-2-ol]
< 0.05 µM | CC(C)c1cc(CN2CC3(C2)CN(S(C)(=O)=O)C3)cc(F)c1-c1ccc(C(O)(C(F)(F)F)C(F)(F)F)cc1 [Example 15, 1,1,1,3,3,3-hexafluoro-2-(2′-fluoro-6′-isopropyl-4′-((6-(methylsulfonyl)-2,6-diazaspiro[3.3]heptan-2-yl)methyl)-[1,1′-biphenyl]-4-yl)propan-2-ol]
< 0.05 µM | CCc1cc(CN2CCC3(C2)CS(=O)(=O)C3)ccc1-c1ccc(C(O)(C(F)(F)F)C(F)(F)F)cc1C [Example 16, 6-((2-ethyl-4′-(1,1,1,3,3,3-hexafluoro-2-hydroxypropan-2-yl)-2′-methyl-[1,1′-biphenyl]-4-yl)methyl)-2-thia-6-azaspiro[3.4]octane 2,2-dioxide]
0.05 to 0.25 µM | CCc1cc(CN2CCC3(C2)CS(=O)(=O)C3)ccc1-c1ccc(C(O)(C(F)(F)F)C(F)(F)F)cc1 [Example 17, 6-((2-ethyl-4′-(1,1,1,3,3,3-hexafluoro-2-hydroxypropan-2-yl)-[1,1′-biphenyl]-4-yl)methyl)-2-thia-6-azaspiro[3.4]octane 2,2-dioxide]
< 0.05 µM | CCc1cc(CN2CC3(C2)CS(=O)(=O)C3)ccc1-c1ccc(C(O)(C(F)(F)F)C(F)(F)F)cc1C [Example 18, 6-((2-ethyl-4′-(1,1,1,3,3,3-hexafluoro-2-hydroxypropan-2-yl)-2′-methyl-[1,1′-biphenyl]-4-yl)methyl)-2-thia-6-azaspiro[3.3]heptane 2,2-dioxide]
0.05 to 0.25 µM | CCc1cc(CN2CC3(CCCN(S(C)(=O)=O)C3)C2)ccc1-c1ccc(C(O)(C(F)(F)F)C(F)(F)F)cc1 [Example 19, 2-(2′-ethyl-4′-((6-(methylsulfonyl)-2,6-diazaspiro[3.5]nonan-2-yl)methyl)-[1,1′-biphenyl]-4-yl)-1,1,1,3,3,3-hexafluoropropan-2-ol]
0.05 to 0.25 µM | CCc1cc(CN2CC3(C2)CN(S(=O)(=O)CC)C3)ccc1-c1ccc(C(O)(C(F)(F)F)C(F)(F)F)cc1 [Example 22, 2-(2′-ethyl-4′-((6-(ethylsulfonyl)-2,6-diazaspiro[3.3]heptan-2-yl)methyl)-[1,1′-biphenyl]-4-yl)-1,1,1,3,3,3-hexafluoropropan-2-ol]
< 0.05 µM | CC(C)(C)c1cc(CN2CC3(C2)CN(S(C)(=O)=O)C3)ccc1-c1ccc(C(O)(C(F)(F)F)C(F)(F)F)cc1 [Example 23, 2-(2′-(tert-butyl)-4′-((6-(methylsulfonyl)-2,6-diazaspiro[3.3]heptan-2-yl)methyl)-[1,1′-biphenyl]-4-yl)-1,1,1,3,3,3-hexafluoropropan-2-ol]
0.05 to 0.25 µM | CCc1cc(CN2CC3(CCS(=O)(=O)C3)C2)ccc1-c1ccc(C(O)(C(F)(F)F)C(F)(F)F)cc1 [Example 24, 2-((2-ethyl-4′-(1,1,1,3,3,3-hexafluoro-2-hydroxypropan-2-yl)-[1,1′-biphenyl]-4-yl)methyl)-6-thia-2-azaspiro[3.4]octane 6,6-dioxide]
> 0.25 µM | CCc1cc(CN2CC3(CC[S+]([O-])C3)C2)ccc1-c1ccc(C(O)(C(F)(F)F)C(F)(F)F)cc1 (centres unmarked) [Example 25, 2-((2-ethyl-4′-(1,1,1,3,3,3-hexafluoro-2-hydroxypropan-2-yl)-[1,1′-biphenyl]-4-yl)methyl)-6-thia-2-azaspiro[3.4]octane 6-oxide]
0.05 to 0.25 µM | CCc1cc(CN2CC3(C2)CS(=O)(=O)C3)ccc1-c1ccc(C(O)(C(F)(F)F)C(F)(F)F)cc1 [Example 26, 6-((2-ethyl-4′-(1,1,1,3,3,3-hexafluoro-2-hydroxypropan-2-yl)-[1,1′-biphenyl]-4-yl)methyl)-2-thia-6-azaspiro[3.3]heptane 2,2-dioxide]
0.05 to 0.25 µM | CCc1cc(CN2CC3(C2)C[S+]([O-])C3)ccc1-c1ccc(C(O)(C(F)(F)F)C(F)(F)F)cc1 [Example 27, 6-((2-ethyl-4′-(1,1,1,3,3,3-hexafluoro-2-hydroxypropan-2-yl)-[1,1′-biphenyl]-4-yl)methyl)-2-thia-6-azaspiro[3.3]heptane 2-oxide]
> 0.25 µM | CCc1cc(CN2CC3(CSC3)C2)ccc1-c1ccc(C(O)(C(F)(F)F)C(F)(F)F)cc1 [Example 28, 2-(4′-((2-thia-6-azaspiro[3.3]heptan-6-yl)methyl)-2′-ethyl-[1,1′-biphenyl]-4-yl)-1,1,1,3,3,3-hexafluoropropan-2-ol]
> 0.25 µM | CCc1cc(CN2CC(CN(C)S(C)(=O)=O)C2)ccc1-c1ccc(C(O)(C(F)(F)F)C(F)(F)F)cc1 [Example 29, N-((1-((2-ethyl-4′-(1,1,1,3,3,3-hexafluoro-2-hydroxypropan-2-yl)-[1,1′-biphenyl]-4-yl)methyl)azetidin-3-yl)methyl)-N-methylmethanesulfonamide]

Reference: patent US11242350B2, “Spirocyclic ROR-gamma modulators” (Escalier Biosciences B.V., priority 2018, dated 2022)
